Measurements: US20220062240A1, “METHODS OF TREATING CANCER USING A CLK INHIBITOR” (BioSplice Therapeutics, Inc., priority 2018, published 2022)
Like-named read-outs stand apart in the source and are kept apart here.

How the values were obtained:
[1] = molecular target: T1, CLK2 (Homo sapiens, UniProt P49760); assay: CLK2 kinase activity assay (Z-lyte, Ser/Thr 6 peptide); assay type: biochemical; conditions: recombinant CLK2 kinase, ATP 60 μM; read-out: EC50
T1 construct: purchased Thermo Fisher (Life Technologies), Z'-LYTE Kinase Assay Kits
Procedure: All reactions were performed in duplicate.

[2] = tested on: colorectal cancer (6 cell lines); assay: CellTiter-Glo Viability Assay, colorectal cancer; assay type: cell-based; conditions: Homo sapiens, inhibition of cancer cell proliferation
[3] = molecular target: CLK3 (Homo sapiens, UniProt P49761); assay: CLK3 kinase activity assay (Z-lyte, Ser/Thr 18 peptide)
[4] = tested on: ovarian cancer (4 cell lines); assay: CellTiter-Glo Viability Assay, ovarian cancer; assay type: cell-based; conditions: Homo sapiens, inhibition of cancer cell proliferation
[5] = tested on: haematopoietic & lymphoid tumors (13 cell lines); assay: CellTiter-Glo Viability Assay, haematopoietic & lymphoid tumors; assay type: cell-based; conditions: Homo sapiens, inhibition of cancer cell proliferation
[6] = tested on: lung cancer (4 cell lines); assay: CellTiter-Glo Viability Assay, lung cancer; assay type: cell-based; conditions: Homo sapiens, inhibition of cancer cell proliferation
[7] = tested on: prostate cancer (5 cell lines); assay: CellTiter-Glo Viability Assay, prostate cancer; assay type: cell-based; conditions: Homo sapiens
[8] = tested on: DU4475; assay: CellTiter-Glo Viability Assay, breast cancer; assay type: cell-based; conditions: Homo sapiens, DU-4475, 96 h; DU4475, breast cancer, four days; read-out: EC50
[9] = tested on: BT-549; assay: CellTiter-Glo Viability Assay, breast cancer; assay type: cell-based; conditions: Homo sapiens, 96 h; BT-549, breast cancer, four days; read-out: EC50
[10] = tested on: T47D; assay: CellTiter-Glo Viability Assay, breast cancer; assay type: cell-based; conditions: Homo sapiens, 96 h, breast cancer, four days, read-out: EC50
[11] = tested on: HCC1599; assay: CellTiter-Glo Viability Assay, breast cancer; assay type: cell-based; conditions: Homo sapiens, 96 h; HCC1599, breast cancer, four days; read-out: EC50
[12] = tested on: CAMA1; assay: CellTiter-Glo Viability Assay, breast cancer; assay type: cell-based; conditions: Homo sapiens, CAMA-1, 96 h; CAMA1, breast cancer, four days; read-out: EC50
[13] = tested on: MCF7; assay: CellTiter-Glo Viability Assay, breast cancer; assay type: cell-based; conditions: Homo sapiens, 96 h; MCF7, breast cancer, four days; read-out: EC50
[14] = tested on: MDA-MB-231-Luc; assay: CellTiter-Glo Viability Assay, breast cancer; assay type: cell-based; conditions: Homo sapiens, 96 h; MDA-MB-231-Luc, breast cancer, four days; read-out: EC50
[15] = tested on: ZR-75-1; assay: CellTiter-Glo Viability Assay, breast cancer; assay type: cell-based; conditions: Homo sapiens, 96 h; ZR-75-1, breast cancer, four days; read-out: EC50
[16] = tested on: pancreatic cancer (8 cell lines); assay: CellTiter-Glo Viability Assay, pancreatic cancer; assay type: cell-based; conditions: Homo sapiens, inhibition of cancer cell proliferation
[17] = tested on: all 50 cell lines; assay: CellTiter-Glo Viability Assay, average across all cell lines; assay type: cell-based; conditions: Homo sapiens; across all 50 cell lines; read-out: average EC50 for inhibition of cancer cell proliferation
Summary of the method: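 Cells were plated at 300-3,000 per well in their own media, then treated with compound in duplicate, with DMSO wells as controls. After four days at 37° C and 5% CO2, CellTiter-Glo was added, and luminescence was read. EC50s were fitted.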

[18] = tested on: liver cancer (3 cell lines); assay: CellTiter-Glo Viability Assay, liver cancer; assay type: cell-based; conditions: Homo sapiens, inhibition of cancer cell proliferation
[19] = SW480 cell line, read-out: Colorectal cancer, EC50 (μM) SW480
[20] = PA-1, PA1 cell line, read-out: Ovarian cancer, EC50 (μM) PA1
[21] = TOV112D, TOV-112D cell line, read-out: Ovarian cancer, EC50 (μM) TOV-112D
[22] = OV-90 cell line, read-out: Ovarian cancer, EC50 (μM) OV-90
[23] = OVCAR-3 cell line, read-out: Ovarian cancer, EC50 (μM) OVCAR-3
[24] = DND41, DND-41 cell line, read-out: Haematopoietic & Lymphoid tumors, EC50 (μM) DND-41
[25] = MV4-11, MV-4-11 cell line, read-out: Haematopoietic & Lymphoid tumors, EC50 (μM) MV-4-11
[26] = Rec1, REC-1 cell line, read-out: Haematopoietic & Lymphoid tumors, EC50 (μM) REC-1
[27] = SU-DHL-4, SUDHL4 cell line, read-out: Haematopoietic & Lymphoid tumors, EC50 (μM) SUDHL4
[28] = HL-60 cell line, read-out: Haematopoietic & Lymphoid tumors, EC50 (μM) HL-60
[29] = JM1 cell line, read-out: Haematopoietic & Lymphoid tumors, EC50 (μM) JM1
[30] = JURKAT, Clone E6-1 cell line, read-out: Haematopoietic & Lymphoid tumors, EC50 (μM) JURKAT, Clone E6-1
[31] = JeKo-1 cell line, read-out: Haematopoietic & Lymphoid tumors, EC50 (μM) JeKo-1
[32] = KASUMI-1 cell line, read-out: Haematopoietic & Lymphoid tumors, EC50 (μM) KASUMI-1
[33] = Loucy cell line, read-out: Haematopoietic & Lymphoid tumors, EC50 (μM) Loucy
[34] = MOLT-4 cell line, read-out: Haematopoietic & Lymphoid tumors, EC50 (μM) MOLT-4
[35] = TF-1 cell line, read-out: Haematopoietic & Lymphoid tumors, EC50 (μM) TF-1
[36] = TOLEDO cell line, read-out: Haematopoietic & Lymphoid tumors, EC50 (μM) TOLEDO
[37] = A-427, A427 cell line, read-out: Lung cancer, EC50 (μM) A427
[38] = HCC78, HCC-78 cell line, read-out: Lung cancer, EC50 (μM) HCC-78
[39] = NCI-H460 cell line, read-out: Lung cancer, EC50 (μM) NCI-H460
[40] = NCI-H522 cell line, read-out: Lung cancer, EC50 (μM) NCI-H522
[41] = DU-145, read-out: Prostate cancer EC50 Du-145
[42] = PC-3, PC3 cell line, inhibition of cancer cell proliferation, read-out: Prostate cancer EC50 PC3
[43] = 22Rv1 cell line, inhibition of cancer cell proliferation, read-out: Prostate cancer EC50 22Rv1
[44] = LNCap clone FGC cell line, inhibition of cancer cell proliferation, read-out: Prostate cancer EC50 LNCap clone FGC
[45] = VCaP (Sigma) cell line, inhibition of cancer cell proliferation, read-out: Prostate cancer EC50 VCaP (Sigma)
[46] = BXPC-3, BxPC3 cell line, read-out: Pancreatic cancer, EC50 BxPC3
[47] = CAPAN-1, Capan1 cell line, read-out: Pancreatic cancer, EC50 Capan1
[48] = Capan-2, Capan2 cell line, read-out: Pancreatic cancer, EC50 Capan2
[49] = MIA PaCa-2 cell line, read-out: Pancreatic cancer, EC50 MIA PaCa-2
[50] = PANC 05.04 cell line, read-out: Pancreatic cancer, EC50 PANC 05.04
[51] = PANC-1 cell line, read-out: Pancreatic cancer, EC50 PANC-1
[52] = UPAFII cell line, read-out: Pancreatic cancer, EC50 UPAFII
[53] = SNU-398, SNU398 cell line, read-out: Liver cancer, EC50 SNU398
[54] = HEPG2 cell line, read-out: Liver cancer, EC50 HEPG2
[55] = PLC/PRF/5 cell line, read-out: Liver cancer, EC50 PLC/PRF/5

CLK3, sequence (P49761 whole entry): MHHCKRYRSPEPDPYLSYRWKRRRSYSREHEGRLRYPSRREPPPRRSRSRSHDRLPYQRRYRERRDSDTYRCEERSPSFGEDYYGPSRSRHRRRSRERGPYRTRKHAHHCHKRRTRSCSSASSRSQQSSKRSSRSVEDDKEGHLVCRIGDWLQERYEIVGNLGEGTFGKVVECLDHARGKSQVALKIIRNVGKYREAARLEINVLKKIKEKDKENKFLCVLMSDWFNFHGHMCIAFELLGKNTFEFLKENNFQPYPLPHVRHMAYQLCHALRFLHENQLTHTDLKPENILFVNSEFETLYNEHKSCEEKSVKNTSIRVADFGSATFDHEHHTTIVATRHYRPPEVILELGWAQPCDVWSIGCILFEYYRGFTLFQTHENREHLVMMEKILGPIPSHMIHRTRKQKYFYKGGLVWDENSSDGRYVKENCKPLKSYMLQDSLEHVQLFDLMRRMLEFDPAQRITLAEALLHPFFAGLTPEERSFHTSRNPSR
T1 sequence (P49760 whole entry): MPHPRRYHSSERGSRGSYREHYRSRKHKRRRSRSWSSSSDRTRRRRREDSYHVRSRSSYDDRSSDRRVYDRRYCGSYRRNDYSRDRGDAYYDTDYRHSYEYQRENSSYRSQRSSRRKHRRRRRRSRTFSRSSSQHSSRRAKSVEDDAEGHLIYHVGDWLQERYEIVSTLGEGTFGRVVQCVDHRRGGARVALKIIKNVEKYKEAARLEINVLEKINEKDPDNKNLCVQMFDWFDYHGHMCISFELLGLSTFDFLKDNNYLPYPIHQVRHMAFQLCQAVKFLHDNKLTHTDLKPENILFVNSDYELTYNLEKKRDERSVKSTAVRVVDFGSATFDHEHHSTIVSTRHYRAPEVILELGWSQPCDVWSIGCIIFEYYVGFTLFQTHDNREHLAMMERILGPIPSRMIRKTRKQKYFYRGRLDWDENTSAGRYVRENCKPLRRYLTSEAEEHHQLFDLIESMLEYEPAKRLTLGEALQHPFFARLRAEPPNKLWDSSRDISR

## Cc1n[nH]c2cc(F)c(-c3cncc(CN4CCNCC4)c3)cc12 [Compound 63]
[1]
  EC50: 12 nM
[2]; HCT-116, HCT116 cell line, read-out: Colorectal cancer, EC50 (μM) HCT116
  EC50: 2.93 µM
[2]; HT-29, HT29 cell line, read-out: Colorectal cancer, EC50 (μM) HT29
  EC50: 6.16 µM
[2]; SW-620, SW620 cell line, read-out: Colorectal cancer, EC50 (μM) SW620
  EC50: 1.82 µM
[2]; DLD-1 cell line, read-out: Colorectal cancer, EC50 (μM) DLD-1
  EC50: 5.01 µM
[2]; SW48 cell line, read-out: Colorectal cancer, EC50 (μM) SW48
  EC50: 1.49 µM
[2]; [19]
  EC50: 3.24 µM
[3]
  EC50: 343 nM
[4]; [20]
  EC50: 3.04 µM
[4]; [21]
  EC50: 3.63 µM
[4]; [22]
  EC50: 7.97 µM
[4]; [23]
  EC50: 2.62 µM
[5]; [24]
  EC50: 7.09 µM
[5]; [25]
  EC50: 3.34 µM
[5]; [26]
  EC50: 3.52 µM
[5]; [27]
  EC50: 3.46 µM
[5]; [28]
  EC50: 8.7 µM
[5]; [29]
  EC50: 1.69 µM
[5]; [30]
  EC50: > 10 µM
[5]; [31]
  EC50: 1.49 µM
[5]; [32]
  EC50: 3.19 µM
[5]; [33]
  EC50: 3.72 µM
[5]; [34]
  EC50: 7.07 µM
[5]; [35]
  EC50: 6 µM
[5]; [36]
  EC50: 2.21 µM
[6]; [37]
  EC50: 4.18 µM
[6]; [38]
  EC50: 8.18 µM
[6]; [39]
  EC50: 7.41 µM
[6]; [40]
  EC50: 3.3 µM
[7]; [41]
  EC50: 6490 nM
[7]; [42]
  EC50: 4420 nM
[7]; [43]
  EC50: 3980 nM
[7]; [44]
  EC50: 6850 nM
[7]; [45]
  EC50: 6660 nM
[8]
  EC50: 3870 nM
[9]
  EC50: 4740 nM
[10]
  EC50: 8470 nM
[11]
  EC50: 2330 nM
[12]
  EC50: 5210 nM
[13]
  EC50: > 10000 nM
[14]
  EC50: 6470 nM
[15]
  EC50: 6810 nM
[16]; [46]
  EC50: 9160 nM
[16]; [47]
  EC50: 4840 nM
[16]; [48]
  EC50: 8870 nM
[16]; [49]
  EC50: 1590 nM
[16]; [50]
  EC50: 5510 nM
[16]; [51]
  EC50: 5640 nM
[16]; [52]
  EC50: 3820 nM
[17]
  EC50: 5050 nM
[18]; [53]
  EC50: 1370 nM
[18]; [54]
  EC50: 3440 nM
[18]; [55]
  EC50: 9520 nM

## Cc1n[nH]c2ccc(-c3cncc(N[C@H]4CC[C@@H](N)CC4)n3)cc12 [Compound 64]
[1]
  EC50: 1.7 nM
[2]; [19]
  EC50: 0.123 µM
[3]
  EC50: 482 nM
[4]; [20]
  EC50: 0.2 µM
[4]; [21]
  EC50: 0.155 µM
[4]; [22]
  EC50: 0.179 µM
[4]; [23]
  EC50: 0.127 µM
[5]; [24]
  EC50: 0.186 µM
[5]; [25]
  EC50: 0.071 µM
[5]; [26]
  EC50: 0.812 µM
[5]; [27]
  EC50: 0.138 µM
[5]; [28]
  EC50: 0.488 µM
[5]; [29]
  EC50: 0.175 µM
[5]; [30]
  EC50: 0.624 µM
[5]; [31]
  EC50: 0.14 µM
[5]; [32]
  EC50: 0.275 µM
[5]; [33]
  EC50: 0.217 µM
[5]; [34]
  EC50: 0.383 µM
[5]; [35]
  EC50: 0.92 µM
[5]; [36]
  EC50: 0.269 µM
[6]; [37]
  EC50: 0.243 µM
[6]; [38]
  EC50: 0.725 µM
[6]; [39]
  EC50: 0.759 µM
[6]; [40]
  EC50: 0.396 µM
[7]; [41]
  EC50: 543 nM
[7]; [42]
  EC50: 294 nM
[7]; [43]
  EC50: 379 nM
[7]; [44]
  EC50: 636 nM
[7]; [45]
  EC50: 616 nM
[8]
  EC50: 121 nM
[9]
  EC50: 228 nM
[10]
  EC50: 465 nM
[11]
  EC50: 262 nM
[12]
  EC50: 473 nM
[13]
  EC50: 633 nM
[14]
  EC50: 451 nM
[15]
  EC50: 211 nM
[16]; [46]
  EC50: 365 nM
[16]; [47]
  EC50: 498 nM
[16]; [48]
  EC50: 361 nM
[16]; [49]
  EC50: 157 nM
[16]; [50]
  EC50: 427 nM
[16]; [51]
  EC50: 815 nM
[16]; [52]
  EC50: 403 nM
[17]
  EC50: 398 nM
[18]; [53]
  EC50: 59 nM
[18]; [54]
  EC50: 402 nM
[18]; [55]
  EC50: 1490 nM
